Results on one compound are retold here after US20240066003A1, “NEURODEVELOPMENTAL DISORDER THERAPY” (Anavex Life Sciences Corp., priority 2016, published 2024).

Data set [1] in a line: Body weight of Mecp2 HET mice under chronic dosing. The data set is classed as in vivo. The note with it: 30 mg/kg p.o. daily, 6.5 weeks after dosing began; Treatment×Age effect p<0.001. The procedure: Studies employed wild type (WT) mice and heterozygous MECP2knockout mice (HET) All mice were provided by Jackson Laboratory, Bar Harbor, Maine. HET mice were Bird mice (Jackson Laboratories, Bar Harbor, ME, B6.129P2(C)-Mecp2^tm1.1Bird/Stock Number: 003890) were obtained by crossing het females with wild type (WT) males (C57B/6J). […] Mecp2 females testing at ˜8 and ˜12 weeks of age WT—vehicle (0.25% MC/dH2O) HET—vehicle (0.25% MC/dH2O) HET—A2-733 (10 mg/kg) HET—A2-733 (30 mg/kg) Chronic dosing (p.o.) daily, starting at ˜5.5 weeks of age and continuing through the 12-week behavioral testing time point 60 min pre-treatment during behavioral testing. […] FIG. 1 There was a significant Treatment×Age effect (p<0.001), where mice treated with A2-733 (30 mg/kg) weighed less than vehicle-treated mutant mice 6.5 weeks after dosing began.

For a further data set, the target named is sigma-1 receptors (Homo sapiens, UniProt Q99720). The note with it: believed to bind; cited from earlier work.
Chain of sigma-1 receptors (Q99720 whole entry): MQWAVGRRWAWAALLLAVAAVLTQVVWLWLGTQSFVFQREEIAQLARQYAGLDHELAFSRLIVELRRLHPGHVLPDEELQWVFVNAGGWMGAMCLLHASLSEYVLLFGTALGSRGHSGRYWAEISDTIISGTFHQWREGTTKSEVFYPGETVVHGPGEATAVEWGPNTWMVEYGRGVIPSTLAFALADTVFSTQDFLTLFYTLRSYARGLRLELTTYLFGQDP
For data set [2], the system named is muscarinic acetylcholine receptors. The note with it: believed to bind; cited from earlier work.
Data set [3] has as its system relapsing-remitting multiple sclerosis. The experiment in a line: Example 9 gadolinium-enhancing MRI lesions in relapsing-remitting multiple sclerosis patient. Conditions: person, oral 30 mg every other day for 3 months, up to month 6. In kind it is in vivo, human. The procedure: A person presents with relapsing-remitting multiple sclerosis. They begin treatment with oral doses of A2-73 at 30 mg every other day for 3 months.

The test system of another data set is multiple sclerosis. The experiment in a line: Example 8 gadolinium-enhanced MRI lesions in multiple sclerosis patient. In kind it is in vivo, human. The note with it: person, oral 40 mg every fifth day, weeks 12, 16, 20 and 24 vs 12 week pretreatment MRI. As for the experimental part:
A person presents with multiple sclerosis. They begin treatment with oral doses of A2-73 at 40 mg every fifth day.

For data set [4], the system named is Rett syndrome. The experiment in a line: Example 3 seizure reduction in Rett syndrome patient. The data set is classed as in vivo, human. The note with it: oral 2 mg daily, after 5 days, 6 to 10 seizures per day before therapy. The procedure:
A person presents with Rett syndrome. They experience 6 to 10 seizures per day prior to commencing therapy. They begin treatment with oral doses of A2-73 at 2 mg daily. After 5 days of treatment, the number of daily seizures is reduced to 3 or fewer.

Another data set deals with Williams syndrome. The experiment in a line: Example 6 weight gain in Williams syndrome patient. In kind it is in vivo, human. Conditions: person, i.v. 5 mg every other day, after 60 days. The procedure: A person presents with Williams syndrome. […] They begin treatment with i.v. doses of A2-73 at 5 mg every other day.
The subject of data set [5] is heterozygous MECP2knockout mice (HET). The experiment in a line: Startle/PPI. The data set is classed as in vivo. As for the experimental part: Studies employed wild type (WT) mice and heterozygous MECP2knockout mice (HET) All mice were provided by Jackson Laboratory, Bar Harbor, Maine. HET mice were Bird mice (Jackson Laboratories, Bar Harbor, ME, B6.129P2(C)-Mecp2^tm1.1Bird/Stock Number: 003890) were obtained by crossing het females with wild type (WT) males (C57B/6J). […] Mecp2 females testing at ˜8 and ˜12 weeks of age WT—vehicle (0.25% MC/dH2O) HET—vehicle (0.25% MC/dH2O) HET—A2-733 (10 mg/kg) HET—A2-733 (30 mg/kg) Chronic dosing (p.o.) daily, starting at ˜5.5 weeks of age and continuing through the 12-week behavioral testing time point 60 min pre-treatment during behavioral testing. The acoustic startle measures an unconditioned reflex response to external auditory stimulation. Mice are placed in the prepulse inhibition (PPI) chambers for a 5 min session of white noise (70 dB) habituation. Then the session starts with a habituation block of 6 presentations of the startle stimulus alone, followed by 10 PPI blocks of 6 different types of trials [null (no stimuli), startle (120 dB), startle plus prepulse (4, 8 and 12 dB over background noise i.e. 74, 78 or 82 dB) and prepulse alone (82 dB)] presented at random within each block. The amount of inhibition of the normal startle is determined and expressed as a percentage of the basic startle response (from startle alone trials), excluding the startle response of the first habituation block.

In data set [6] the test system is Rett syndrome. The experiment in a line: Example 2 cardiac pulse rate in Rett syndrome patient. Conditions: person, oral 20 mg daily for 5 days. The data set is classed as in vivo, human. An excerpt:
A person presents with Rett syndrome. Their real time cardiac pulse rate is monitored. Prior to commencing therapy, their heart rate is 49 beats per minute with substantial variability.

In data set [7] the test system is heterozygous MECP2knockout mice (HET). The experiment in a line: Rotarod. In kind it is in vivo. The procedure:
Studies employed wild type (WT) mice and heterozygous MECP2knockout mice (HET) All mice were provided by Jackson Laboratory, Bar Harbor, Maine. HET mice were Bird mice (Jackson Laboratories, Bar Harbor, ME, B6.129P2(C)-Mecp2^tm1.1Bird/Stock Number: 003890) were obtained by crossing het females with wild type (WT) males (C57B/6J). […] Mecp2 females testing at ˜8 and ˜12 weeks of age WT—vehicle (0.25% MC/dH2O) HET—vehicle (0.25% MC/dH2O) HET—A2-733 (10 mg/kg) HET—A2-733 (30 mg/kg) Chronic dosing (p.o.) daily, starting at ˜5.5 weeks of age and continuing through the 12-week behavioral testing time point 60 min pre-treatment during behavioral testing. The rotarod performance test is a performance test based on a rotating rod with forced motor activity being applied, usually by a rodent. The test measures parameters such as riding time (seconds) or endurance. Some of the functions of the test include evaluating balance, grip strength, and motor coordination of the subjects; especially in testing the effect of experimental drugs or after traumatic brain injury. Mice are placed on the rotarod apparatus (PsychoGenics, Tarrytown New York) consisting of a rod that rotates at a constant or variable and accelerating speed of 4 rpm. Once a mouse loses its balance and falls onto an underlying platform the timer automatically stops. Mice are exposed to the apparatus for 5 min training at a constant speed and placed back on the rod after each fall. After a rest period of at least 1 hr. animals are placed back on the rotarod apparatus for testing. Once all animals in a test session are loaded on the rod, the rotarod apparatus is placed on accelerating speed (0-40 rpm) over 5 min and the time until the first fall is recorded. The test is repeated three consecutive times per animal. For each test session, the RPM score at time of fall off the rod are recorded.

[8] abbreviates: 8 weeks of age, 10 and 30 mg/kg p.o. daily, HET mice.
The mark [9] stands for this setting: 12 weeks of age, both doses (10 and 30 mg/kg p.o. daily).

Consider `CN(C)CC1CCOC1(c1ccccc1)c1ccccc1.Cl` (stereo not shown) [A2-73, tetrahydro-N,N-dimethyl-2,2-diphenyl-3-furanmethanamine hydrochloride], for which, in data set [1], the “body weight vs vehicle-treated mutant mice” value is recorded as “weighed less”. On sigma-1 receptors, the “affinity for sigma-1 receptors” value is on record as “low micromolar range”. In addition, in [2], the “affinity for muscarinic acetylcholine receptors” value is listed as “low micromolar range”. Besides, the “number of total gadolinium-enhancing lesions on monthly brain MRI” value in data set [3] is on record as “significantly lower number”. For the same compound, in the data set with multiple sclerosis, the “total number of gadolinium-enhanced lesions on MRI” value is “substantially reduced”. Also, the “number of daily seizures” value with Rett syndrome [4] is on record as no more than 3. The weight gain with Williams syndrome was 10%. In addition, the “PPI, treatment differences” value in [5] (8 weeks of age) is reported as “No treatment differences”. Further, the “startle response vs vehicle-treated mutant mice” value in [5] (8 weeks of age, 30 mg/kg p.o. daily) is on record as “increased startle response”. Moreover, in data set [5] (12 weeks of age, 30 mg/kg, outliers removed, p<0.01), the “startle response vs vehicle-treated mutant mice, outliers removed” value is reported as “increased startle”. Moreover, the “startle response, treatment effect” value in data set [5] (12 weeks of age, all data, p<0.08) is recorded as “trend of a treatment effect”. The “PPI treatment interaction, post hoc” value in [5] (12 weeks of age, interaction p<0.05) was “did not reveal any significant post hoc differences”. Further, in the data set with Rett syndrome [6], the heart rate variability entry was “variability is reduced”. The compound also had an average heart rate in the data set with Rett syndrome [6] (49 beats per minute before therapy) of 75 beats per minutes. Also, in [7] (setting [8]), the “rotarod speed at fall, treatment effect” value is “No significant treatment effects” and the “rotarod time to fall, treatment effect” value is recorded as “No significant treatment effects”. In addition, in data set [7] (setting [9]), the “rotarod speed at fall vs vehicle-treated mutant mice” value is given as “fell at higher speeds” and the “rotarod time to fall vs vehicle-treated mutant mice” value is “took more time to fall off the rod”. Besides, the “rotarod speed at fall, without outliers” value in data set [7] (12 weeks of age, higher dose (30 mg/kg), outliers removed) is listed as “effect at the higher dose disappeared”.
